Measurements taken from article PMC8945229, “Development and Biological Characterization of a Novel Selective TrkA Agonist with Neuroprotective Properties against Amyloid Toxicity” (Biomedicines, 2022).

Experiments:
hippocampal brain slices = test: LTP electrophysiology in hippocampal brain slices treated with oligomeric Aβ; parameters: species or system mouse; details: oligomeric Aβ 5 μM, 500 nM, 3–5 h, vs slices treated only with Aβ
Excerpt: C57BL/6J mice were euthanized under halothane anesthesia and the brain was quickly dissected and placed in ice-cold oxygenated artificial cerebrospinal fluid (aCSF; 95% O2/5% CO2) containing (in mM): 125 NaCl, 3.5 KCl, 26 NaHCO3, 1 MgCl2 and 10 glucose (pH = 7.4, 315 mOsm/L). The brain was then placed onto the stage of a vibratome (Leica, VT1000S, Leica Biosystems GmbH, Wetzlar, Germany) and transverse slices containing the hippocampus were obtained. […] Field excitatory post-synaptic potentials (fEPSP) were amplified using an EXT-02F amplifier ([…]), digitized with ITC-18 (HEKA Elektronik GmbH, Reutlingern, Germany) and recorded in a computer running Windows 10 with IgorPro software (Wavemetrics Inc., Portland, OR, USA). […] The fEPSP amplitude was calculated from the minimum voltage value of the synaptic response (3–5 ms following stimulation) compared to the baseline voltage prior to stimulation. fEPSP recordings were acquired every 90″ for 10′ before TBS and continued for approximately 50′ following LTP induction. Recorded traces were analyzed using a custom-made script in the IgorPro software (Wavemetrics Inc., Portland, OR, USA).

γ-secretase = γ-secretase activity / APP processing in U2OS APP-C99-tGFP cells; assay type: cell-based; details: 6 h
Protocol: PC12 and HEK293T cells were obtained from LGC Promochem GmbH (Teddington, UK) and cultured under the conditions specified by the manufacturer. NIH3T3 cells were stably transfected with human TrkB plasmid. PC12 cells were grown in DMEM medium (11965084, Gibco, Grand Island, NY, USA) containing 10% Horse Serum (16050122, Gibco, Grand Island, NY, USA), 5% Fetal Bovine Serum (10270106, Gibco, Grand Island, NY, USA), 100 units/mL Penicillin and 0.1 mg/mL Streptomycin (15140122, Gibco, Grand Island, NY, USA) at 5% CO2 and 37 °C. Cells were used between passages 5–20. HEK293T and NIH3T3 cells were grown in the same medium as PC12 cells supplemented with 10% Fetal Bovine Serum and lacking Horse Serum. For transient transfection of HEK293T cells, lipofectamine was used and cells were transfected with human p75^NTR and Traf6 plasmids. To determine the intracellular activity of endogenous secretases, we tagged (tGFP) a truncated mutant (Tm) of APP containing the original amino acids sequence from M516 to N773. This Tm conserves the secretases cleavage sites, clathrin binding site, tau protein binding site, collagen binding site and some glycosylation sites critical for protein localization and intracellular trafficking. The cDNA of the TmAPP gene was amplified by PCR and subcloned into pturbo-GFP vector. The construction was transfected into U2OS cells (ATCC Cat Number HTB-96) using Lipofectamine LTX (Thermo Fisher Scientific, Waltham, MA, USA). After 48 h, individual cells were plated in MTP96 plates using F.SIGHT (CYTENA GmbH, Freiburg, Germany), and cultured in complete medium containing 250 μg/mL G418 for selection. The selection medium was changed every two to three days. The cells were allowed to grow for 3 to 4 weeks, after which clones were isolated for further analysis. Resistant clones were checked by RT-PCR and epifluorescence microscopy.
The Alzheimer’s Disease (AD) phenotype is partly attributed to the toxic effects caused by oligmeric Aβ, which results in reduced neuronal trophic support, caused by deregulation of neurotrophic signaling. It is therefore reasonable that a small molecule that can selectively activate TrkA signaling and promote neuronal survival could alleviate the detrimental effects caused by toxic Aβ oligomers, especially during the early phases of the disease or modulate APP misprocessing and therefore reduce the production of the toxic Aβ. The U2OS stably expressing APP-C99-tGFP cell line was used in order to monitor γ-secretase activity, the process responsible for Aβ production from APP. The assay achieves this by measuring the levels of fluorescent APP-C99 construct produced by β-secretase activity. When γ-secretase is active, the construct is cleaved, leading to Aβ production. […] Therefore, higher fluorescence levels correspond to decreased γ-secretase activity and Aβ aggregate formation by extension. […] In addition, in order to investigate whether ENT-A013 can protect cells against Aβ-induced toxicity we isolated neurons from the hippocampus of E17.5 mouse embryos, a brain area that is heavily affected in AD. Neurons were left in culture for 16–18 DIV and then were treated with oligomeric Aβ and ENT-A013 for 48 h. Subsequently, cells were fixed and cell death was assessed using TUNEL assay.
(A,B) Primary hippocampal neurons were treated for 48 h with oligomeric Aβ in the presence of ENT-A013 and TUNEL assay was used to quantify cell death. Representative images from 3 independent experiments. Data are shown as ±SEM. One-way ANOVA, Tukey’s Test correction: ** p < 0.01; *** p < 0.001. (C) Aggregate formation on untreated cells, treated with DAPT inhibitor of γ-secretase or with compound ENT-A013. […] Aggregate formation was quantified with a BD Pathway 855 High-Content Bioimager and Attonvision software.

## CC12CCC(O)CC1=CCC1C2CCC2(C)C1CCC21CC1C=CBr [ENT-A013, (2′R,3S,17S)-2′-(2-Bromovinyl)-5-Androstene-17,1′-Cyclopropan-3-ol]
Hippocampal brain slices
  synaptic potentiation after TBS (in words): significantly increased synaptic potentiation
γ-secretase; 10 μM
  increase in APP spot levels compared to DAPT: 166.3%
γ-secretase; 30 μM
  increase in APP spot levels compared to DAPT: 246.4%
γ-secretase; 100 μM
  increase in APP spot levels compared to DAPT: 243.9%
γ-secretase; 300 μM
  increase in APP spot levels compared to DAPT: 239.9%
γ-secretase; Homo sapiens, U2OS, 100 nM to 300 μM, read-out: IC50 (γ-secretase activity, aggregate formation)
  IC50: 93 µM
